Experimental data published in patent US20220362249A1, “METHODS FOR TREATING […]” (PTC Therapeutics MP, Inc., priority 2019, published 2022).
Where two headings read alike, the source gives them in different places.

Experiments:
[1] = Food effect on administration of sepiapterin: plasma sepiapterin and BH4 concentrations, fasted vs fed; format: in vivo, human; details: sepiapterin 10 mg/kg oral; for concentration at 0 h / concentration at 0.5 h / concentration at 1 h / concentration at 2 h / concentration at 4 h / concentration at 8 h / concentration at 12 h / concentration at 24 h: human, oral, 10 mg/kg; for concentration at 0 h: 0 h (predose)
Method: Method: Subjects received 2 oral doses of sepiapterin (10 mg/kg) separated by 1 week in a fasted and fed state. Subjects were fed a standard high-fat (approximately 50 percent of total caloric content of the meal) and high-calorie (approximately 800 to 1000 calories) meal starting 30 minutes prior to receiving their second oral dose of sepiapterin on Day 8.
Sampling for PK analysis occurred predose on Days 1 and 8 (within 30 minutes before dosing) and 0.5 hr, 1 hr, 2 hr, 4 hr, 8 hr, 12 hr, and 24 hr after the doses on Days 1 and 8. The blood concentrations of sepiapterin and BH4 were analyzed by MNG Labs.

[2] = Pharmacokinetic analysis of multiple doses of sepiapterin (once daily for 7 days, fed subjects); format: in vivo, human; details: human, plasma, fed; for AUC(0-t): read-out: AUC0-24; for Cmax: read-out: Cmax
Source text: Methods: Three cohorts of eight fed subjects each were randomized to receive once-daily sepiapterin or placebo for 7 days in a 6:2 ratio. A sentinel dose strategy was also used for administration of the highest sepiapterin dose.

[3] = plasma, fasted, read-out: Concentration in Plasma, Maximum
[4] = plasma, fasted, read-out: Concentration in Plasma, Mean
[5] = plasma, fasted, read-out: Concentration in Plasma, Median
[6] = plasma, fasted, read-out: Concentration in Plasma, Minimum
[7] = plasma, fed (high-fat meal), read-out: Concentration in Plasma, Maximum
[8] = plasma, fed (high-fat meal), read-out: Concentration in Plasma, Mean
[9] = plasma, fed (high-fat meal), read-out: Concentration in Plasma, Median
[10] = plasma, fed (high-fat meal), read-out: Concentration in Plasma, Minimum
[11] = 5 mg/kg, Day 1, sepiapterin 5 mg/kg once daily
[12] = 5 mg/kg, Day 7, sepiapterin 5 mg/kg once daily
[13] = 20 mg/kg, Day 1, sepiapterin 20 mg/kg once daily
[14] = 20 mg/kg, Day 7, sepiapterin 20 mg/kg once daily
[15] = 60 mg/kg, Day 1, sepiapterin 60 mg/kg once daily
[16] = 60 mg/kg, Day 7, sepiapterin 60 mg/kg once daily

## C[C@H](O)[C@H](O)[C@H]1CNc2nc(N)[nH]c(=O)c2N1 [BH4, Tetrahydrobiopterin]
[1]; [3]
  concentration at 0 h: 9 nM
  concentration at 0.5 h: 66.5 nM
  concentration at 1 h: 223 nM
  concentration at 2 h: 618 nM
  concentration at 4 h: 1130 nM
  concentration at 8 h: 457 nM
  concentration at 12 h: 162 nM
  concentration at 24 h: 37.4 nM
[1]; [4]
  concentration at 0 h: 7.62 nM
  concentration at 0.5 h: 25.6 nM
  concentration at 1 h: 155 nM
  concentration at 2 h: 413 nM
  concentration at 4 h: 624 nM
  concentration at 8 h: 248 nM
  concentration at 12 h: 85.9 nM
  concentration at 24 h: 18.3 nM
[1]; [5]
  concentration at 0 h: 7.75 nM
  concentration at 0.5 h: 22.9 nM
  concentration at 1 h: 147 nM
  concentration at 2 h: 370 nM
  concentration at 4 h: 635 nM
  concentration at 8 h: 233 nM
  concentration at 12 h: 75.3 nM
  concentration at 24 h: 15.3 nM
[1]; [6]
  concentration at 0 h: 5 nM
  concentration at 0.5 h: 13.8 nM
  concentration at 1 h: 98.5 nM
  concentration at 2 h: 271 nM
  concentration at 4 h: 379 nM
  concentration at 8 h: 90.2 nM
  concentration at 12 h: 38.9 nM
  concentration at 24 h: 8.5 nM
[1]; [7]
  concentration at 0 h: 11 nM
  concentration at 0.5 h: 76.4 nM
  concentration at 1 h: 369 nM
  concentration at 2 h: 1200 nM
  concentration at 4 h: 1570 nM
  concentration at 8 h: 926 nM
  concentration at 12 h: 261 nM
  concentration at 24 h: 40.1 nM
[1]; [8]
  concentration at 0 h: 8.43 nM
  concentration at 0.5 h: 33.3 nM
  concentration at 1 h: 166 nM
  concentration at 2 h: 587 nM
  concentration at 4 h: 1100 nM
  concentration at 8 h: 520 nM
  concentration at 12 h: 161 nM
  concentration at 24 h: 19.3 nM
[1]; [9]
  concentration at 0 h: 8.5 nM
  concentration at 0.5 h: 30.9 nM
  concentration at 1 h: 160 nM
  concentration at 2 h: 554 nM
  concentration at 4 h: 1010 nM
  concentration at 8 h: 485 nM
  concentration at 12 h: 142 nM
  concentration at 24 h: 16.1 nM
[1]; [10]
  concentration at 0 h: 6 nM
  concentration at 0.5 h: 8.9 nM
  concentration at 1 h: 42.3 nM
  concentration at 2 h: 299 nM
  concentration at 4 h: 751 nM
  concentration at 8 h: 253 nM
  concentration at 12 h: 90.4 nM
  concentration at 24 h: 12.1 nM
[1]; plasma
  Geometric mean ratio (fasted/fed, 90% CI) for AUC0-inf: 0.58 (0.47 to 0.71)
  Geometric mean ratio (fasted/fed, 90% CI) for Cmax: 0.55 (0.45 to 0.68)
[1]
  Cmax in the plasma, fed compared to fasted subjects (in words): much higher
  Increase in overall exposure (AUC0-inf and AUClast), fed compared with fasted state: 1.7 fold
[2]; [11]
  Tmax: 4 h
  AUC(0-t): 994 ng·h/mL
  Cmax: 147 ng/mL
[2]; [12]
  Tmax: 4 h
  AUC(0-t): 1070 ng·h/mL
  Cmax: 152 ng/mL
[2]; [13]
  Tmax: 4 h
  AUC(0-t): 3030 ng·h/mL
  Cmax: 496 ng/mL
[2]; [14]
  Tmax: 4 h
  AUC(0-t): 3720 ng·h/mL
  Cmax: 516 ng/mL
[2]; [15]
  Tmax: 4.6 h
  AUC(0-t): 4560 ng·h/mL
  Cmax: 597 ng/mL
[2]; [16]
  Tmax: 4 h
  AUC(0-t): 4860 ng·h/mL
  Cmax: 678 ng/mL
[2]; Day 1, sepiapterin 5 mg/kg once daily
  AUC(0-inf): 1010 ng·h/mL
[2]; Day 1, sepiapterin 20 mg/kg once daily
  AUC(0-inf): 3080 ng·h/mL
[2]; Day 1, sepiapterin 60 mg/kg once daily
  AUC(0-inf): 4670 ng·h/mL
